Experimental data from patent US7250396B2, “Juvenile hormone compositions and methods for making same” (priority 2003, dated 2007).

Assays:
[1] = system: 16 day Indian Meal Moth larvae; test: Exposure of 16 day larvae to methoprene for varying periods of time; format: in vivo, Plodia Interpunctella; conditions: 1000 wppm MP
Protocol: An experiment was set up to determine the effect of exposing 16 day Indian Meal Moth larvae to methoprene for varying periods of time. The treatment levels tested were control at 0 wppm methoprene and 1000 wppm methoprene. Five larvae (3 females, 2 males) per sample were added to paper treated with the coating composition described in Example 1. The larvae were exposed to the samples for different amount of time. The times of exposure were 0 hrs., 20 min., 1 hr., 2 hrs., 4 hrs., 8 hrs., and 24 hrs. After larvae were exposed for the set amount of time, they were placed in an incubator (Precision Model No. 815) at 80° F. (27° C.) and at a relative humidity of 60 percent, where they were allowed to pupate, become adults, and reproduce. Observations were obtained throughout a 16 day period. From when adults hatched, the number of adults were counted and averaged over the remainder of the experiment. The number of new eggs were also counted and the average number of eggs per adult was calculated. Generally, egg production decreased as treatment levels increased.

[2] = system: day 16 larvae of the Indian Meal Moth, Plodia Interpunctella; test: Effect of methoprene at low concentrations: day 16 larvae on treated paper (behavior, webbing, survival over 19 days); format: in vivo
Protocol: An experiment was set up to determine the effectiveness of methoprene at very low concentrations on day 16 larvae of the Indian Meal Moth, Plodia Interpunctella. The concentrations tested ranged from the control at 0 wppm to 1000 wppm increasing by increments of 10×. Ten larvae per sample were added to the treated paper and exposed throughout the experiment in an incubator (Precision Model No. 815) at 80° F. (27° C.) and at a relative humidity of 60 percent. Behavior, webbing characteristics and survival rates were observed over 19 days.
The coating formulation components (excluding methoprene) and preparation procedure are described in Table 1, below.
As the Benzophenone was added to the mixture in step 7, above, the mixture was stirred in a mixer at 1500 rpm and at a temperature of 70° F. (21° C.) until the benzophenone was dissolved. As the methoprene was added to the mixture in step 8, above, the mixture was stirred in a mixer at 1500 rpm and at a temperature of 89° F. (32° C.).

Indian Meal Moth adults = test: Adult exposure to liquid methoprene in a UV coating: egg production and viability; format: in vivo, Plodia Interpunctella; conditions: for Total Percent Reduction: compared to the control; for Total No. of Eggs: eggs collected over 8 days; for Total No. of Viable Eggs: eggs that hatched
Protocol: An experiment was set up to determine how egg production would be affected when Indian Meal Moth adults were exposed to liquid methoprene in a UV coating. Adults were allowed to emerge into jars lined with treated paper. The treatment levels tested were a control at 0 wppm to 1000 wppm increasing by increments of 10×. A combination treatment of liquid methoprene at 1000 wppm and 1 weight percent diatomaceous earth was also tested. The eggs produced fell to a treated surface before being collected and placed into rearing food. Observations and egg collections were taken over a […] period.
The adults came from stock insects and the number exposed per treatment was not predetermined. The total number of eggs represents all eggs per treatment collected over 8 days. The total number of viable eggs represents the number of eggs that hatched. These larvae were allowed to feed for 14 days before counting.

In the case of COC(C)(C)CCCC(C)C/C=C/C(C)=C/C(=O)OC(C)C (centres unmarked) [methoprene, isopropyl-(2E, 4E)-11-methoxy-3,7,11-trimethyl-2,4-dodecadienoate], the “Average No. of Adults/Day” value ([1]; time exposed 20 min.) is reported as 10, the “Average No. of Eggs/Adult” value ([1]; time exposed 20 min.) is reported as 34 and the “Average No. of Adults/Day” value ([1]; time exposed 1 hr.) is reported as 12. For the same molecule, the “Average No. of Eggs/Adult” value ([1]; time exposed 1 hr.) was 30, the “Average No. of Adults/Day” value ([1]; time exposed 2 hrs.) was 12 and the “Average No. of Eggs/Adult” value ([1]; time exposed 2 hrs.) was 19. The “Average No. of Adults/Day” value ([1]; time exposed 4 hrs.) was 10, the “Average No. of Eggs/Adult” value ([1]; time exposed 4 hrs.) was 25 and the “Average No. of Adults/Day” value ([1]; time exposed 8 hrs.) was 9. For the same molecule, the “Average No. of Eggs/Adult” value ([1]; time exposed 8 hrs.) was 17, the “Average No. of Adults/Day” value ([1]; time exposed 24 hrs.) was 7 and the “Average No. of Eggs/Adult” value ([1]; time exposed 24 hrs.) was 9. For the same molecule, the “SURVIVAL RATE” value ([2]; 1 wppm methoprene in coating, day 4) was 8 number of larvae surviving out of 10 larvae, the “SURVIVAL RATE” value ([2]; 1 wppm methoprene in coating, day 7) was 7 number of larvae surviving out of 10 larvae and the “SURVIVAL RATE” value ([2]; 1 wppm methoprene in coating, day 11) was 6 number of larvae surviving out of 10 larvae. The “SURVIVAL RATE” value ([2]; 1 wppm methoprene in coating, day 13) was 5 number of larvae surviving out of 10 larvae, the “SURVIVAL RATE” value ([2]; 1 wppm methoprene in coating, day 19) was 1 number of larvae surviving out of 10 larvae and the “SURVIVAL RATE” value ([2]; 10 wppm methoprene in coating, day 4) was 8 number of larvae surviving out of 10 larvae. For the same molecule, the “SURVIVAL RATE” value ([2]; 10 wppm methoprene in coating, day 7) was 8 number of larvae surviving out of 10 larvae, the “SURVIVAL RATE” value ([2]; 10 wppm methoprene in coating, day 11) was 7 number of larvae surviving out of 10 larvae and the “SURVIVAL RATE” value ([2]; 10 wppm methoprene in coating, day 13) was 7 number of larvae surviving out of 10 larvae. The “SURVIVAL RATE” value ([2]; 10 wppm methoprene in coating, day 19) was 2 number of larvae surviving out of 10 larvae, the “SURVIVAL RATE” value ([2]; 100 wppm methoprene in coating, day 4) was 6 number of larvae surviving out of 10 larvae and the “SURVIVAL RATE” value ([2]; 100 wppm methoprene in coating, day 7) was 4 number of larvae surviving out of 10 larvae. For the same molecule, the “SURVIVAL RATE” value ([2]; 100 wppm methoprene in coating, day 11) was 1 number of larvae surviving out of 10 larvae, the “SURVIVAL RATE” value ([2]; 100 wppm methoprene in coating, day 13) was 1 number of larvae surviving out of 10 larvae and the “SURVIVAL RATE” value ([2]; 100 wppm methoprene in coating, day 19) was 1 number of larvae surviving out of 10 larvae. For the same molecule, the “SURVIVAL RATE” value ([2]; 1000 wppm methoprene in coating, day 4) was 7 number of larvae surviving out of 10 larvae, the “SURVIVAL RATE” value ([2]; 1000 wppm methoprene in coating, day 7) was 5 number of larvae surviving out of 10 larvae and the “SURVIVAL RATE” value ([2]; 1000 wppm methoprene in coating, day 11) was 3 number of larvae surviving out of 10 larvae. The “SURVIVAL RATE” value ([2]; 1000 wppm methoprene in coating, day 13) was 3 number of larvae surviving out of 10 larvae, the “SURVIVAL RATE” value ([2]; 1000 wppm methoprene in coating, day 19) was 0 number of larvae surviving out of 10 larvae and the Behavior ([2]; exposed larvae, as early as day 4 of the testing period, increased nipping and cannibalism) was “showed signs of aggression”. For the same molecule, the Webbing characteristics ([2]; larvae exposed to 1 wppm methoprene) was “slightly thicker throughout the dish than the control”, the Webbing characteristics ([2]; larvae exposed to 10 wppm methoprene) was “thicker, more centralized webbing” and the Webbing characteristics ([2]; larvae exposed to 10 wppm methoprene (second mention, compared with the 10 wppm sample)) was “dense and more centralized than the 10 wppm methoprene sample”. For the same molecule, the Webbing characteristics ([2]; larvae exposed to 1000 wppm methoprene) was “completely centralized mound of webbing”, the “survival rate compared to the control sample” value ([2]; treatment levels as low as 1 wppm) was “significant decrease in survival rate” and the “Percent Viable Eggs” value (Indian Meal Moth adults; 10 wppm MP) was 7.5%. The “Total Percent Reduction” value (Indian Meal Moth adults; 10 wppm MP) was 85.6%, the “Total No. of Eggs” value (Indian Meal Moth adults; 10 wppm MP) was 1430 and the “Total No. of Viable Eggs” value (Indian Meal Moth adults; 10 wppm MP) was 108. The “Percent Viable Eggs” value (Indian Meal Moth adults; 100 wppm MP) was 18%, the “Total Percent Reduction” value (Indian Meal Moth adults; 100 wppm MP) was 65.4% and the “Total No. of Eggs” value (Indian Meal Moth adults; 100 wppm MP) was 1285. For the same molecule, the “Total No. of Viable Eggs” value (Indian Meal Moth adults; 100 wppm MP) was 234, the “Percent Viable Eggs” value (Indian Meal Moth adults; 1000 wppm MP) was 36% and the “Total Percent Reduction” value (Indian Meal Moth adults; 1000 wppm MP) was 30.8%. The “Total No. of Eggs” value (Indian Meal Moth adults; 1000 wppm MP) was 1190 and the “Total No. of Viable Eggs” value (Indian Meal Moth adults; 1000 wppm MP) was 432.
